Like-named read-outs stand apart in the source and are kept apart here.
Experiments:
CYP2B6 [1] = biological target: T1, CYP2B6 (Homo sapiens, UniProt P20813); assay: in vitro; details: pH 7.4, Km, 2B6+ clone microsomes, nonlinear regression, substrate 1–100 μM, 37°C
recombinant human CYP3A4 = details: 3A4+ clone microsomes; nonlinear regression
recombinant human CYP2D6 = recombinant human CYP2D6 (Homo sapiens, UniProt P10635); assay: CYP activity assay, deethylation of fluorogenic substrate by microsomes of 2D6+ clone; details: 2D6+ clone microsomes, nonlinear regression
CYP3A4 = assay: in vitro; details: human, pH 7.4, Km, 3A4+ clone microsomes; nonlinear regression; substrate 1–100 μM, 37°C
CYP2B6 [2] = biological target: T1, CYP2B6; details: 2B6+ clone microsomes; nonlinear regression
[3] = system: CYP3A4 + RAD54 system (CPR-CYP3A4 and RAD54-GFP constructs)
[4] = system: NCs system (control pESC-URA and pUMGP5 plasmids)
in vitro = details: Saccharomyces cerevisiae
[5] = system: RAD54 system (only the RAD54-GFP construct)
[6] = system: CYP2B6 + RAD54 system (CPR-CYP2B6 and RAD54-GFP constructs)
[7] = system: CYP2D6 + RAD54 system (CPR-CYP2D6 and RAD54-GFP constructs)
RAD54-GFP integrant = details: concentration 1.02–33 μg/mL; ref Walsh et al. 2005 [30]; cited from earlier work
[8] = system: RAD54-GFP integrant + CYP3A4; details: cited from earlier work
[9] = system: RAD54-GFP integrant + CYP1A2; details: cited from earlier work
[10] = substrate: CCOc1ccc2cc(C#N)c(=O)oc2c1; assay: cells, lysate or membranes named; details: other: 2D6+ clone microsomes, nonlinear regression, substrate 1–100 μM, 37°C
[11] = concentration 1.02–33 μg/mL, ref Walsh et al. 2005 [30]

T1 sequence (P20813 whole entry): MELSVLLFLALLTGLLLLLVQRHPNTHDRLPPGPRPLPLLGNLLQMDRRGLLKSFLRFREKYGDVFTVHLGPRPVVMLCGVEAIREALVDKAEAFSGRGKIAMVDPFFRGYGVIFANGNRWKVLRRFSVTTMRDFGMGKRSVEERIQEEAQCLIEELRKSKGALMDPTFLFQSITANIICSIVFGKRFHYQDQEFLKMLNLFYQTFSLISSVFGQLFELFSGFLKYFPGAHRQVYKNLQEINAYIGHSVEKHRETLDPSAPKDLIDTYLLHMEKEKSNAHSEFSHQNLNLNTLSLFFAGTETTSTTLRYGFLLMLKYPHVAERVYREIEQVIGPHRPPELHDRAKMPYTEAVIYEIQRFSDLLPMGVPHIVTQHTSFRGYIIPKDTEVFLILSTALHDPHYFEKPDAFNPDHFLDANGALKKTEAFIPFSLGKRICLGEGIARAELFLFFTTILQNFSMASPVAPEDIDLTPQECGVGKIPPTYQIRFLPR

## CCOc1ccc2cc(C#N)c(=O)oc2c1 [7-ethoxycoumarin-3-carbonitrile]
CYP2B6 [1]
  Km: 3.7 µM
Recombinant human CYP3A4
  Vmax: 3.2 pmol/pmol CYP/min
Recombinant human CYP2D6
  Vmax: ~ 4.7 pmol/pmol CYP/min
Recombinant human CYP2D6; substrate 1–100 μM, 37°C
  Km: ~2.1 µM
CYP3A4
  Km: 3.5 µM
CYP2B6 [2]
  Vmax: 2.7 pmol/pmol CYP/min

## c1ccc2c(c1)cc1ccc3cccc4ccc2c1c34 [Benzo(a)pyrene, benzo(a)pyrene]
[3]
  Genotoxicity result, present study, CYP3A4 + RAD54: +
[3]; 10 μM, 16 h at 30°C
  GFP fold induction signal, CYP3A4 + RAD54: + (positive (>1.3 GFP fold induction), + (1.3, 2])
[3]; 20 μM, 16 h at 30°C
  GFP fold induction signal, CYP3A4 + RAD54: + (positive (>1.3 GFP fold induction), + (1.3, 2])
[3]; 40 μM, 16 h at 30°C
  GFP fold induction signal, CYP3A4 + RAD54: ++ (++ (2, 3])
[4]; 10 μM, 16 h at 30°C
  GFP fold induction signal, NCs: – (Negative (≤1.3 GFP fold induction),–)
[4]; 20 μM, 16 h at 30°C
  GFP fold induction signal, NCs: – (Negative (≤1.3 GFP fold induction),–)
[4]; 40 μM, 16 h at 30°C
  GFP fold induction signal, NCs: – (Negative (≤1.3 GFP fold induction),–)
In vitro
  fold induction: ≤ 1.3
[5]; 10 μM, 16 h at 30°C
  GFP fold induction signal, RAD54: – (Negative (≤1.3 GFP fold induction),–)
[5]; 20 μM, 16 h at 30°C
  GFP fold induction signal, RAD54: – (Negative (≤1.3 GFP fold induction),–)
[5]; 40 μM, 16 h at 30°C
  GFP fold induction signal, RAD54: – (Negative (≤1.3 GFP fold induction),–)
[6]; 10 μM, 16 h at 30°C
  GFP fold induction signal, CYP2B6 + RAD54: – (Negative (≤1.3 GFP fold induction),–)
[6]; 20 μM, 16 h at 30°C
  GFP fold induction signal, CYP2B6 + RAD54: – (Negative (≤1.3 GFP fold induction),–)
[6]; 40 μM, 16 h at 30°C
  GFP fold induction signal, CYP2B6 + RAD54: – (Negative (≤1.3 GFP fold induction),–)
[7]; 10 μM, 16 h at 30°C
  GFP fold induction signal, CYP2D6 + RAD54: – (Negative (≤1.3 GFP fold induction),–)
[7]; 20 μM, 16 h at 30°C
  GFP fold induction signal, CYP2D6 + RAD54: – (Negative (≤1.3 GFP fold induction),–)
[7]; 40 μM, 16 h at 30°C
  GFP fold induction signal, CYP2D6 + RAD54: – (Negative (≤1.3 GFP fold induction),–)

## COS(C)(=O)=O [Methyl methanesulfonate, methyl methanesulfonate]
RAD54-GFP integrant
  Genotoxicity result, published report, RAD54-GFP integrant: +
[8]; [11]
  Genotoxicity result, published report, RAD54-GFP integrant + CYP3A4: +
[3]; 25 μM, 16 h at 30°C
  GFP fold induction signal, CYP3A4 + RAD54: + (positive (>1.3 GFP fold induction), + (1.3, 2])
[3]; 50 μM, 16 h at 30°C
  GFP fold induction signal, CYP3A4 + RAD54: +++ (+++ (3, 4])
[3]; 100 μM, 16 h at 30°C
  GFP fold induction signal, CYP3A4 + RAD54: ++++ (++++ (4, ∞])
[3]; concentration 2.75–11.01 μg/mL
  Genotoxicity result, present study, CYP3A4 + RAD54: +
[4]; 25 μM, 16 h at 30°C
  GFP fold induction signal, NCs: – (Negative (≤1.3 GFP fold induction),–)
[4]; 50 μM, 16 h at 30°C
  GFP fold induction signal, NCs: – (Negative (≤1.3 GFP fold induction),–)
[4]; 100 μM, 16 h at 30°C
  GFP fold induction signal, NCs: – (Negative (≤1.3 GFP fold induction),–)
[5]; 25 μM, 16 h at 30°C
  GFP fold induction signal, RAD54: + (positive (>1.3 GFP fold induction), + (1.3, 2])
[5]; 50 μM, 16 h at 30°C
  GFP fold induction signal, RAD54: +++ (+++ (3, 4])
[5]; 100 μM, 16 h at 30°C
  GFP fold induction signal, RAD54: ++++ (++++ (4, ∞])
[5]; concentration 2.75–11.01 μg/mL
  Genotoxicity result, present study, RAD54: +
[6]; 25 μM, 16 h at 30°C
  GFP fold induction signal, CYP2B6 + RAD54: + (positive (>1.3 GFP fold induction), + (1.3, 2])
[6]; 50 μM, 16 h at 30°C
  GFP fold induction signal, CYP2B6 + RAD54: +++ (+++ (3, 4])
[6]; 100 μM, 16 h at 30°C
  GFP fold induction signal, CYP2B6 + RAD54: ++++ (++++ (4, ∞])
[6]; concentration 2.75–11.01 μg/mL
  Genotoxicity result, present study, CYP2B6 + RAD54: +
[7]; 25 μM, 16 h at 30°C
  GFP fold induction signal, CYP2D6 + RAD54: + (positive (>1.3 GFP fold induction), + (1.3, 2])
[7]; 50 μM, 16 h at 30°C
  GFP fold induction signal, CYP2D6 + RAD54: +++ (+++ (3, 4])
[7]; 100 μM, 16 h at 30°C
  GFP fold induction signal, CYP2D6 + RAD54: ++++ (++++ (4, ∞])
[7]; concentration 2.75–11.01 μg/mL
  Genotoxicity result, present study, CYP2D6 + RAD54: +
[9]; [11]
  Genotoxicity result, published report, RAD54-GFP integrant + CYP1A2: +

## N-nitrosodimethylamine
[8]
  Genotoxicity result, published report, RAD54-GFP integrant + CYP3A4: +
[3]
  GFP fold induction signal, CYP3A4 + RAD54: – (key: Negative (≤1.3 GFP fold induction),–; positive (>1.3 GFP fold induction), + (1.3, 2]; ++ (2, 3]; +++ (3, 4]; ++++ (4, ∞])
[4]
  GFP fold induction signal, NCs: – (key: Negative (≤1.3 GFP fold induction),–; positive (>1.3 GFP fold induction), + (1.3, 2]; ++ (2, 3]; +++ (3, 4]; ++++ (4, ∞])
[5]
  GFP fold induction: ≤ 1.3
  GFP fold induction signal, RAD54: – (key: Negative (≤1.3 GFP fold induction),–; positive (>1.3 GFP fold induction), + (1.3, 2]; ++ (2, 3]; +++ (3, 4]; ++++ (4, ∞])
[6]
  Genotoxicity result, present study, CYP2B6 + RAD54: +
[7]
  GFP fold induction signal, CYP2D6 + RAD54: – (key: Negative (≤1.3 GFP fold induction),–; positive (>1.3 GFP fold induction), + (1.3, 2]; ++ (2, 3]; +++ (3, 4]; ++++ (4, ∞])

## aflatoxin B1
[3]
  Genotoxicity result, present study, CYP3A4 + RAD54: +
[3]; 0.1 µM
  GFP fold induction signal, CYP3A4 + RAD54: + (key: Negative (≤1.3 GFP fold induction),–; positive (>1.3 GFP fold induction), + (1.3, 2]; ++ (2, 3]; +++ (3, 4]; ++++ (4, ∞])
[3]; 0.2 µM
  GFP fold induction signal, CYP3A4 + RAD54: ++ (key: Negative (≤1.3 GFP fold induction),–; positive (>1.3 GFP fold induction), + (1.3, 2]; ++ (2, 3]; +++ (3, 4]; ++++ (4, ∞])
[3]; 0.4 µM
  GFP fold induction signal, CYP3A4 + RAD54: ++ (key: Negative (≤1.3 GFP fold induction),–; positive (>1.3 GFP fold induction), + (1.3, 2]; ++ (2, 3]; +++ (3, 4]; ++++ (4, ∞])
[4]; 0.1 µM
  GFP fold induction signal, NCs: – (key: Negative (≤1.3 GFP fold induction),–; positive (>1.3 GFP fold induction), + (1.3, 2]; ++ (2, 3]; +++ (3, 4]; ++++ (4, ∞])
[4]; 0.2 µM
  GFP fold induction signal, NCs: – (key: Negative (≤1.3 GFP fold induction),–; positive (>1.3 GFP fold induction), + (1.3, 2]; ++ (2, 3]; +++ (3, 4]; ++++ (4, ∞])
[4]; 0.4 µM
  GFP fold induction signal, NCs: – (key: Negative (≤1.3 GFP fold induction),–; positive (>1.3 GFP fold induction), + (1.3, 2]; ++ (2, 3]; +++ (3, 4]; ++++ (4, ∞])
[5]
  GFP fold induction: ≤ 1.3
[5]; 0.1 µM
  GFP fold induction signal, RAD54: – (key: Negative (≤1.3 GFP fold induction),–; positive (>1.3 GFP fold induction), + (1.3, 2]; ++ (2, 3]; +++ (3, 4]; ++++ (4, ∞])
[5]; 0.2 µM
  GFP fold induction signal, RAD54: – (key: Negative (≤1.3 GFP fold induction),–; positive (>1.3 GFP fold induction), + (1.3, 2]; ++ (2, 3]; +++ (3, 4]; ++++ (4, ∞])
[5]; 0.4 µM
  GFP fold induction signal, RAD54: – (key: Negative (≤1.3 GFP fold induction),–; positive (>1.3 GFP fold induction), + (1.3, 2]; ++ (2, 3]; +++ (3, 4]; ++++ (4, ∞])
[6]
  Genotoxicity result, present study, CYP2B6 + RAD54: +
[6]; 0.1 µM
  GFP fold induction signal, CYP2B6 + RAD54: – (key: Negative (≤1.3 GFP fold induction),–; positive (>1.3 GFP fold induction), + (1.3, 2]; ++ (2, 3]; +++ (3, 4]; ++++ (4, ∞])
[6]; 0.2 µM
  GFP fold induction signal, CYP2B6 + RAD54: – (key: Negative (≤1.3 GFP fold induction),–; positive (>1.3 GFP fold induction), + (1.3, 2]; ++ (2, 3]; +++ (3, 4]; ++++ (4, ∞])
[6]; 0.4 µM
  GFP fold induction signal, CYP2B6 + RAD54: + (key: Negative (≤1.3 GFP fold induction),–; positive (>1.3 GFP fold induction), + (1.3, 2]; ++ (2, 3]; +++ (3, 4]; ++++ (4, ∞])
[7]; 0.1 µM
  GFP fold induction signal, CYP2D6 + RAD54: – (key: Negative (≤1.3 GFP fold induction),–; positive (>1.3 GFP fold induction), + (1.3, 2]; ++ (2, 3]; +++ (3, 4]; ++++ (4, ∞])
[7]; 0.2 µM
  GFP fold induction signal, CYP2D6 + RAD54: – (key: Negative (≤1.3 GFP fold induction),–; positive (>1.3 GFP fold induction), + (1.3, 2]; ++ (2, 3]; +++ (3, 4]; ++++ (4, ∞])
[7]; 0.4 µM
  GFP fold induction signal, CYP2D6 + RAD54: – (key: Negative (≤1.3 GFP fold induction),–; positive (>1.3 GFP fold induction), + (1.3, 2]; ++ (2, 3]; +++ (3, 4]; ++++ (4, ∞])
[9]
  Genotoxicity result, published report, RAD54-GFP integrant + CYP1A2: +

B1: recombinant human CYP2D6 (Homo sapiens) (protein)
chain: MGLEALVPLAVIVAIFLLLVDLMHRRQRWAARYPPGPLPLPGLGNLLHVDFQNTPYCFDQLRRRFGDVFSLQLAWTPVVVLNGLAAVREALVTHGEDTADRPPVPITQILGFGPRSQGVFLARYGPAWREQRRFSVSTLRNLGLGKKSLEQWVTEEAACLCAAFANHSGRPFRPNGLLDKAVSNVIASLTCGRRFEYDDPRFLRLLDLAQEGLKEESGFLREVLNAVPVLLHIPALAGKVLRFQKAFLTQLDELLTEHRMTWDPAQPPRDLTEAFLAEMEKAKGNPESSFNDENLRIVVADLFSAGMVTTSTTLAWGLLLMILHPDVQRRVQQEIDDVIGQVRRPEMGDQAHMPYTTAVIHEVQRFGDIVPLGVTHMTSRDIEVQGFRIPKGTTLITNLSSVLKDEAVWEKPFRFHPEHFLDAQGHFVKPEAFLPFSAGRRACLGEPLARMELFLFFTSLLQHFSFSVPTGQPRPSHHGVFAFLVSPSPYELCAVPR
[10]
  Km: 2.1 µM
  kcat: 4.7 pmol/pmol CYP/min
  kcat/Km: 2.2 μL/pmol CYP/min
